Values joined by “and” are separate entries in the source; they are usually repeats but may differ in a detail not shown here. Equal values may be shown once.
Columns and labels:
Hela cells = assay: β-Galactosidase activity recovered from cell extracts after lipofectin delivery or translocation (4 hours); type: cell-based
Protocol: (§1) The quantitative measurement of translocation was carried out by reading the activity of a β-Galactosidase enzyme that was included as part of a fusion protein with the translocation agents. When provided with the appropriate galactoside substrate, the enzyme deglycosylates the substrate leading to the accumulation of dioxetane. During a following incubation in a different buffer, the dioxetane becomes deprotonated and decomposes with emission of light (425 nm) that can be read using a luminometer. This system, therefore, provided a sensitive means of detecting the amount of the β-Galactosidase present in the samples, and ultimately, the amount of fusion protein delivered into the cells.
The experiments were carried out using 8-well chamber slides. 3×10^4 Hela cells were seeded into each well, suplemented with 400 μl RPMI+10% FCS medium and incubated overnight at 37° C. and 5% CO2. The following day, the appropriate dilutions of protein were made into RPMI medium and added to the wells. Both lipofectin delivery and translocation experiments were carried out for 4 hours.
The experiments were carried out on two different days: the first day a negative control β-Galactosidase and the H1.4B-Bgal were tested, and the second day the antennapedia fusion (Antp-βgal) was tested. A lipofectin delivery of β-Galactosidase, provided by Roche, was performed on both days as positive control for delivery into the cells.
(§2) It was decided to start with the amount of each that gave a value close to 6×10^7 rlu, as this is the limit of the equipment's capacity. From that value, three consecutive ⅕ fold dilutions were made in each case.
(§3) Therefore, the original activity of the different proteins was also measured in parallel to the activity recovered after translocation, in order to make sure that all the proteins were standardised to an original maximum activity of around 6×10^7 rlu.
The results after translocation were obtained by reading the β-Galactosidase recovered from the cell extracts and are shown in Tables 6 and 7. […] In any case, the values for the biggest amounts of β-Galactosidase protein are clearly lower than those obtained from the delivery systems.

[1] = β-Galactosidase activity of the protein constructs before delivery (luminometer); type: biochemical; settings: 80 ng protein; Table 6 (first day)
Protocol: as §1, §2, §3

Protein activity [1]	Substance	Activity after transfection (Hela cells; 1.6 ng protein, Table 6 (first day))	Activity after transfection (Hela cells; 1.6 ng protein, Table 7 (second day))	Activity after transfection (Hela cells; 8 ng protein, Table 6 (first day))	Activity after transfection (Hela cells; 8 ng protein, Table 7 (second day))	Activity after transfection (Hela cells; 40 ng protein, Table 6 (first day))	Activity after transfection (Hela cells; 40 ng protein, Table 7 (second day))	Activity after transfection (Hela cells; 640 pg protein, Table 6 (first day))	Activity after transfection (Hela cells; 3.2 ng protein, Table 6 (first day))	Activity after transfection (Hela cells; 15 ng protein, Table 6 (first day))	Activity after transfection (Hela cells; 16 ng protein, Table 6 (first day))	Activity after transfection (Hela cells; 80 ng protein, Table 6 (first day))
	β-Gal positive control (Roche): β-Galactosidase provided by Roche, delivered with lipofectin reagent as positive control for delivery into the cells	50.353 rlu and 47.212 rlu	40.121 rlu and 33.578 rlu	140.342 rlu and 162.319 rlu	164.745 rlu and 157.913 rlu	635.228 rlu and 675.640 rlu	715.773 rlu and 744.405 rlu					
overload	β-Galactosidase: β-Galactosidase enzyme without translocation agent, negative control							25.076 rlu and 28.710 rlu	29.527 rlu and 35.227 rlu	56.941 rlu	55.164 rlu	242.200 rlu and 298.589 rlu

From US20040234527A1, “Peptides for use as translocation factors” (priority 2001, published 2004)
